Entries after “also recorded” stand apart in the source; their conditions may differ.
Experiments:
[1] = test system: mice; test: Acetic acid-induced writhing assay (visceral pain); assay type: in vivo, mouse (male CD1); settings: s.c.
[2] = test system: NOP receptor; parameters: method as in 2 sources, one per row (each row's own in cited_ref): ref 19 = [19]; PMID 29708942; doi:10.1097/j.pain.0000000000001262; 19. Drieu La Rochelle A. Guillemyn K. Dumitrascuta M. Martin C. Utard V. Quillet R. Schneider S. Daubeuf F. Willemse T. Mampuys P. A bifunctional-biased mu-opioid agonist-neuropeptide FF receptor anta ||| ref suppl. ref 1; settings: cited from earlier work
[3] = test system: mice; settings: chronic s.c., at effective antinociceptive doses (7.4 µmol/kg), ref 19 (suppl. ref 1); cited from earlier work
[4] = test system: DOR; parameters: method as in 2 sources, one per row (each row's own in cited_ref): ref 19 = [19]; PMID 29708942; doi:10.1097/j.pain.0000000000001262; 19. Drieu La Rochelle A. Guillemyn K. Dumitrascuta M. Martin C. Utard V. Quillet R. Schneider S. Daubeuf F. Willemse T. Mampuys P. A bifunctional-biased mu-opioid agonist-neuropeptide FF receptor anta ||| ref suppl. ref 1; settings: cited from earlier work
[5] = test system: mice; parameters: method as in earlier work; settings: s.c., 7.4 µmol/kg where stated (mechanical and thermal stimulation), ref 19 (suppl. ref 1); cited from earlier work
[6] = molecular target: T1, human MOR (Homo sapiens, UniProt P35372); test: biochemical; assay type: biochemical
[7] = test system: mice; settings: chronic s.c., at effective antinociceptive doses (7.4 µmol/kg), ref 19 (suppl. ref 1); cited from earlier work; remark: listed apart in the source
[8] = test system: mice; parameters: method as in suppl. ref 1; settings: acute s.c., at effective antinociceptive doses, ref suppl. ref 1; cited from earlier work
[9] = molecular target: MOR; parameters: method as in suppl. ref 1; settings: radioligand competitive binding; ref suppl. ref 1; read-out: Binding affinity Ki, MOR; cited from earlier work
[10] = test system: neuropeptide FF receptor (NPFFR); parameters: method as in PMID 29708942; settings: in vitro; cited from earlier work
[11] = test system: mice; parameters: method as in suppl. ref 1; settings: acute s.c., at effective antinociceptive doses, ref suppl. ref 1; cited from earlier work; remark: listed apart in the source
[12] = test system: mice; test: Conditioned place preference (CPP) test, rewarding effects; assay type: in vivo, mouse (male CD1); settings: 7.4 µmol/kg s.c. daily for 4 days, vs saline; n = 8 mice per group
[13] = test system: mice; settings: acute s.c., at effective antinociceptive doses (7.4 µmol/kg), ref 19 (suppl. ref 1); cited from earlier work
[14] = test system: mice; parameters: method as in earlier work; settings: s.c., ref 19 (suppl. ref 1); cited from earlier work
[15] = molecular target: NOP receptor; parameters: method as in suppl. ref 1; settings: radioligand competitive binding; ref suppl. ref 1; read-out: Binding affinity Ki, NOP receptor; cited from earlier work
[16] = test system: mice; settings: chronic s.c., at effective antinociceptive doses (7.4 µmol/kg), ref 19 (suppl. ref 1); cited from earlier work; remark: listed apart in the source
[17] = test system: NPFF2R; parameters: method as in suppl. ref 1; settings: [35S]GTPγS binding assay; ref suppl. ref 1; cited from earlier work
[18] = test system: MOR; parameters: method as in 3 sources, one per row (each row's own in cited_ref): ref 19 = [19]; PMID 29708942; doi:10.1097/j.pain.0000000000001262; 19. Drieu La Rochelle A. Guillemyn K. Dumitrascuta M. Martin C. Utard V. Quillet R. Schneider S. Daubeuf F. Willemse T. Mampuys P. A bifunctional-biased mu-opioid agonist-neuropeptide FF receptor anta ||| ref suppl. ref 1 ||| ref 19 (suppl. ref 1); settings: cited from earlier work
[19] = test system: mice; test: Open-field test, spontaneous locomotor activity; assay type: in vivo, mouse (male CD1); settings: 7.4 µmol/kg s.c. daily for 4 days, vs saline; 30 min recording; n = 8 mice per group
[20] = test system: human MOR; parameters: method as in 2 sources, one per row (each row's own in cited_ref): ref 19 = [19]; PMID 29708942; doi:10.1097/j.pain.0000000000001262; 19. Drieu La Rochelle A. Guillemyn K. Dumitrascuta M. Martin C. Utard V. Quillet R. Schneider S. Daubeuf F. Willemse T. Mampuys P. A bifunctional-biased mu-opioid agonist-neuropeptide FF receptor anta ||| ref 19 (suppl. ref 1); settings: cited from earlier work
[21] = molecular target: T1, human MOR; test: cell-based; assay type: cell-based
[22] = test system: KOR; parameters: method as in 2 sources, one per row (each row's own in cited_ref): ref 19 = [19]; PMID 29708942; doi:10.1097/j.pain.0000000000001262; 19. Drieu La Rochelle A. Guillemyn K. Dumitrascuta M. Martin C. Utard V. Quillet R. Schneider S. Daubeuf F. Willemse T. Mampuys P. A bifunctional-biased mu-opioid agonist-neuropeptide FF receptor anta ||| ref suppl. ref 1; settings: cited from earlier work
[23] = cAMP accumulation assay, ref suppl. ref 1
[24] = relative to maximal effect of DAMGO (100%), HEK293 cells, ref 19 (suppl. ref 1)

T1 sequence (P35372 whole entry): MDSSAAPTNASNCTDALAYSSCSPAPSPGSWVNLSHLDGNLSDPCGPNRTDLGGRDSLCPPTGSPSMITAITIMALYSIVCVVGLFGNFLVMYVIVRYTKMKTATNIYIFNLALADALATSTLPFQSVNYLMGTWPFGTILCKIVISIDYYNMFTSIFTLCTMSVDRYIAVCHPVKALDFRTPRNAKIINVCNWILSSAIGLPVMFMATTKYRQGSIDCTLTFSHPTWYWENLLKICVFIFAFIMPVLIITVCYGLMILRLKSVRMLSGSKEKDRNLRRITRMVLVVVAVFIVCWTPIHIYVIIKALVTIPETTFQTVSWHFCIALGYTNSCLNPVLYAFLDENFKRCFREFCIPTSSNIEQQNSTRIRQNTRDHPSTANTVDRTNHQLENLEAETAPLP

With `Cc1cc(O)cc(C)c1C[C@H](N)C(=O)N[C@H](CCCNC(=N)N)C(=O)NC1Cc2ccccc2CN(CCC(=O)NC(CCCN2CCC(Cc3ccccc3)CC2)C(=O)N[C@@H](Cc2ccccc2)C(N)=O)C1=O` (stereo partly drawn) [KGFF09, H-Dmt-DArg-Aba-βAla-Bpa-Phe-NH2] the “Antinociceptive ED50, writhing assay” value ([1]; 30 min after administration, Litchfield and Wilcoxon) was 0.079 µmol/kg, the “Effect in writhing assay” value ([1]; mice) was “yes and dose-dependent inhibition of the writhing behavior” and the “Potency vs morphine, writhing assay” value ([1]; ratio of ED50 (morphine ED50 from ref 24)) was 17 fold. The “Emax, G protein activation, NOP receptor” value [2, 23] was 7%, the EC50 ([2]; cAMP accumulation assay, ref suppl. ref 1, read-out: EC50, G protein activation, NOP receptor) was over 10000 nM and the “Functional profile at NOP receptor” value [2] was “antagonist profile”. For the same compound, the “Antinociceptive/analgesic tolerance” value [3] was “no and reduced side effects and reduced opioid-induced side effects”, the “Binding affinity lower at DOR than at MOR” value ([4]; DOR vs MOR) was 77 fold and the Ki ([4]; radioligand competitive binding, ref suppl. ref 1, read-out: Binding affinity Ki, DOR) was 186 nM. For the same compound, the “Antihyperalgesic effect, CFA-induced hyperalgesia” value [5] was “yes and potent and long-lasting antinociceptive activity and completely reduced pain behavior of mice to mechanical and thermal stimulation and very effective with long-lasting antinociceptive effects”, the “Functional profile at MOR in [35S]GTPγS binding” value [6] was “full agonist with high G protein coupling potency” and the “Potency increase compared to DAMGO, G protein activation” value [6] was “four-fold increase in potency compared to DAMGO”. The Emax ([6]; read-out: Emax, [35S]GTPγS binding) was 92 ± 9%, the “Withdrawal syndrome” value [7] was “no and reduced side effects and reduced opioid-induced side effects” and the “Constipation” value [8] was “yes”. The Ki [9] was 2.43 nM, the “Functional profile at NPFFR” value [10] was “NPFFR antagonist” and the “Sedation/motor impairment” value [11] was “yes”. The “Rewarding effect, CPP” value [12] was “no and no significant CPP response compared to saline-treated animals”, the “Respiratory depression” value [13] was “less acute side effects; also recorded: reduced opioid-induced side effects” and the “Antinociception, warm-water tail-withdrawal test” value [14] was “yes and potent and long-lasting antinociceptive activity and very effective with long-lasting antinociceptive effects”. For the same compound, the Ki [15] was 209 nM, the “Opioid-induced hyperalgesia” value [16] was “no and reduced side effects and reduced opioid-induced side effects” and the “pA2, NPFF2R” value [17] was 7.77. The EC50 ([18]; HEK293 cells expressing eYFP-tagged β-arrestin-2, MOR-Rluc8, ref 19 (suppl. ref 1), read-out: EC50, BRET β-arrestin2 recruitment (Table S3)) was 56.4 nM, the “BRET β-arrestin2 recruitment and bias” value ([18]; HEK293 cells, MOR) was “reduced efficacy (acting as a partial agonist) in inducing β-arrestin2 recruitment” and the “Signaling bias at MOR in vitro, earlier study” value [18] was “G protein-biased MOR agonist”. For the same compound, the “Emax, BRET β-arrestin2 recruitment (Table S3)” value [18, 24] was 42%, the “Spontaneous locomotor activity, distance traveled” value [19] was “no and no impairment in the locomotor activity” and the EC50 ([20]; HEK293 cells co-expressing cAMP Glosensor-20F and human MOR, ref 19 (suppl. ref 1), read-out: EC50, cAMP accumulation, MOR) was 18.2 nM. For the same compound, the “Functional profile in cAMP accumulation, MOR” value ([20]; HEK293 cells, human MOR) was “potent and full MOR agonist”, the “Emax, cAMP accumulation, MOR” value [20, 24] was 85% and the “β-arrestin2 recruitment” value [21] was “failed to robustly engage β-arrestin2 recruitment”. The Emax ([21]; read-out: Emax, β-arrestin2 recruitment (PathHunter)) was 57 ± 3%, the “Emax, G protein activation, KOR” value [22, 23] was 15% and the EC50 ([22]; cAMP accumulation assay, ref suppl. ref 1, read-out: EC50, G protein activation, KOR) was over 10000 nM. The “Functional profile at KOR” value [22] was “antagonist profile”.

Reference: publication PMC9780937 (Molecules, 2022)
